Results: PMC9143450, “Oxonitrogenated Derivatives of Eremophilans and Eudesmans: Antiproliferative and Anti-Trypanosoma cruzi Activity” (Molecules, 2022)

Columns and labels:
WiDr = assay: Antiproliferative SRB assay (NCI protocol), WiDr; format: cell-based, human; details: for GI50: Homo sapiens, WiDr (colon), 48 h drug exposure, SRB, ± SD; for Selectivity index (SI) on tumor cells: CC50 splenocytes / GI50 WiDr
Protocol: (§1) In vitro antiproliferative activity was evaluated using the protocol of the National Cancer Institute (NCI) after 48 h of drug exposure using the sulforhodamine B (SRB) assay.
(§2) The following human solid tumor cell lines were used in this study: HBL-100 (breast), HeLa (cervix), SW1573 (non-small cell lung), T-47D (breast), A549 (lung), and WiDr (colon). These cell lines were a kind gift from Prof. G. J. Peters (VU Medical Center, Amsterdam, The Netherlands). Cells were maintained in 25 cm^2 culture flasks in RPMI 1640 supplemented with 5% heat-inactivated fetal calf serum and 2 mM L-glutamine in a 37 °C, 5% CO2, 95% humidified air incubator. Exponentially growing cells were trypsinized and resuspended in antibiotic containing medium (100 units penicillin G and 0.1 mg of streptomycin per mL). Single cell suspensions displaying > 97% viability by trypan blue dye exclusion test were subsequently counted. After counting, dilutions were made to give the appropriate cell densities for inoculation onto 96-well microtiter plates. Cells were inoculated in a volume of 100 μL per well at densities of 5000 (WiDr and T-47D), and 2500 (A549, HeLa, SW1573 and HBL-100) cells per well, based on their doubling times.
(§3) Chemosensitivity tests were performed using the SRB assay of the NCI with slight modifications. Briefly, pure compounds were initially dissolved in DMSO at 400 times the desired final maximum test concentration. Control cells were exposed to an equivalent concentration of DMSO (0.25% v/v, negative control). Each agent was tested in triplicates at different dilutions in the range 1–100 μM. Drug treatment started on day 1 after plating. Drug incubation periods were 48 h, after which cells were precipitated with 25 μL of ice-cold 50% (w/v) trichloroacetic acid and fixed for 60 min at 4 °C. Then, the SRB assay was performed. The optical density (OD) of each well was measured at 530 nm, using BioTek’s PowerWave XS Absorbance Microplate Reader. Values were corrected for background OD from wells containing only culture medium. The percentage growth (PG) was calculated with respect to untreated control cells (C) at each level of drug concentrations based on the difference in OD at the start time (T0) and at the end of drug exposure (T), according to NCI formulas. Therefore, if T is greater than or equal to T0, the calculation is 100 × ((T − T0)/(C − T0)). If T is lower than T0, denoting cell death, the calculation is 100 × ((T − T0)/(T0)). The effect is defined as the growth percentage, where 50% growth inhibition (GI50) represents the concentration at which PG is +50. Based on these calculations, a PG value of 0 corresponds to the number of cells present at the beginning of drug exposure, while negative PG values denote net cell death.

SW1573 = assay: Antiproliferative SRB assay (NCI protocol), SW1573; format: cell-based, human; details: for GI50: Homo sapiens, SW1573 (non-small cell lung), 48 h drug exposure, SRB, ± SD; for Selectivity index (SI) on tumor cells: CC50 splenocytes / GI50 SW1573
Protocol: as §1, §2, §3

HeLa = assay: Antiproliferative SRB assay (NCI protocol), HeLa; format: cell-based, human; details: for GI50: Homo sapiens, HeLa (cervix), 48 h drug exposure, SRB, ± SD; for Selectivity index (SI) on tumor cells: CC50 splenocytes / GI50 HeLa
Protocol: as §1, §2, §3

[1] = tested on: Trypanosoma cruzi epimastigotes (RA strain); assay: In vitro anti-Trypanosoma cruzi assay ((3H) thymidine uptake); format: cell-based; details: for IC50: epimastigotes (RA strain), ± SD; for Selectivity Index on T. cruzi epimastigotes: CC50 splenocytes / IC50 epimastigotes
Protocol: Trypanosoma cruzi epimastigotes (RA strain, from discrete typing unit (DTU) VI) were grown in a biphasic medium. Cultures were maintained by weekly passages at 28 °C [18].
The growth inhibition of T. cruzi epimastigotes was evaluated by a (^3H) thymidine uptake assay as previously described. Natural sesquiterpenes and derivatives were evaluated at concentrations ranging from 1.5 to 50 µg/mL. Benznidazole (Active Pharmaceutical Ingredient) was used as positive control (Elea). The percentage of inhibition was calculated as 100 = {((cpm of treated parasites)/(cpm of untreated parasites)) × 100}.
Figure 5 Effect of the natural sesquiterpene tessaric acid (1), ilicic acid (2), and ilicic alcohol (3) and their derivatives on T. cruzi. Epimastigotes (RA strain) were cultured in the presence of the compounds (50–1.5 µg/mL). Determinations were performed by triplicate. The results are expressed as the mean ± SD. (A) Effect of tessaric acid and derivatives on epimastigotes; (B) Effect of ilicic acid and derivatives on epimastigotes; (C) Effect of ilicic alcohol and derivatives on epimastigotes.

HBL-100 = assay: Antiproliferative SRB assay (NCI protocol), HBL-100; format: cell-based, human; details: for GI50: Homo sapiens, HBL-100 (breast), 48 h drug exposure, SRB, ± SD; for Selectivity index (SI) on tumor cells: CC50 splenocytes / GI50 HBL-100
Protocol: as §1, §2, §3

[2] = Cytotoxicity on primary cell culture (flow cytometry, PI); format: cell-based; details: Balb/c, mouse, primary splenocytes (spleen cells), ± SD, read-out: Cytotoxic activity on spleen cells (CC50)
Protocol: (§4) The cytotoxicity of the natural sesquiterpenes (1–3) and derivatives (4–19) was determined on primary cell cultures (splenocytes obtained from Balb/c mouse). […] Derivatives of tessaric acid have shown an improvement in CC50 values in comparison with the natural sesquiterpene 1. […] All the derivatives synthesized from alcohol ilicic (compounds 10–19) were more toxic to mammalian cells than the natural compound (3).
(§5) The cytotoxicity of the compounds was evaluated on splenocytes obtained from Balb/c mouse (1.5 × 10^5) and incubated with different drug dilutions (5–200 μg/mL) as previously described. Cell death was determined by flow cytometry using a BD FACSaria II cytometer. Cells incubated only with drug vehicle were used as 100% viability control, and death percentage was calculated according to the following formula: Death%=1−(%PI^−cells)drug−treated/(%PI^−cells)100% viability control × 100
(§6) The concentration capable of causing 50% cell death (CC50) was determined using a non-linear regression approach.

[3] = tested on: splenocytes obtained from Balb/c mouse; assay: as above; format: cell-based; details: ± SD, read-out: Cytotoxic activity on spleen cells (CC50)
Protocol: as §4, §5, §6

T-47D = assay: Antiproliferative SRB assay (NCI protocol), T-47D; format: cell-based, human; details: for GI50: Homo sapiens, T47D, T-47D (breast), 48 h drug exposure, SRB, ± SD; for Selectivity index (SI) on tumor cells: CC50 splenocytes / GI50 T-47D
Protocol: as §1, §2, §3

[4] = tested on: HeLa, T-47D, WiDr, A549, HBL-100, and SW1573 cell lines; assay: Antiproliferative SRB assay, whole panel of human solid tumor cell lines; format: cell-based; details: for GI50: Homo sapiens, minimal to maximal GI50 across the cell lines tested, 48 h, SRB, read-out: GI50 values, range over all cell lines tested
Protocol: as §1, §2, §3

A549 = assay: Antiproliferative SRB assay (NCI protocol), A549; format: cell-based, human; details: for Selectivity index (SI) on tumor cells: CC50 splenocytes / GI50 A549; for GI50: Homo sapiens, A549 (lung), 48 h drug exposure, SRB, ± SD
Protocol: as §1, §2, §3

C=C(C(=O)O)[C@@H]1CCC2=CC(=O)C[C@H](C)[C@@]2(C)C1 [Compound 1, tessaric acid]
GI50 (WiDr): > 100 µM | GI50 (SW1573): > 100 µM | GI50 (HeLa): > 100 µM | Trypanocidal activity (in words) ([1]; T. cruzi): nor trypanocidal activity | IC50 ([1]; Trypanosoma cruzi): > 201 µM | GI50 (HBL-100): > 100 µM | CC50 [2]: > 329 µM | CC50 [3]: 329 µM | GI50 (T-47D): > 100 µM | Antiproliferative activity (in words) ([4]; solid tumor cell lines evaluated): did not show antiproliferative activity

C=C(C(=O)N(c1ccccc1)C(C)(C)C(=O)NC(C)(C)C)C1CCC2(C)CCCC(C)(O)C2C1 (stereo not drawn) [Compound 10]
Selectivity index (SI) on tumor cells (WiDr): 1.7 | GI50 (WiDr): 45 µM | Selectivity index (SI) on tumor cells (SW1573): 1.6 | GI50 (SW1573): 50 µM | Selectivity index (SI) on tumor cells (HeLa): 2.1 | GI50 (HeLa): 37 µM | Selectivity Index on T. cruzi epimastigotes [1]: 4.0 | IC50 ([1]; Trypanosoma cruzi): 19.6 µM | Selectivity index (SI) on tumor cells (HBL-100): 1.2 | GI50 (HBL-100): 64 µM | CC50 [2]: 78.2 µM | Selectivity index (SI) on tumor cells (T-47D): 2.2 | GI50 (T-47D): 36 µM | GI50 [4]: 17 to 64 µM | Selectivity index (SI) on tumor cells (A549): 2.5 | GI50 (A549): 31 µM

C=C(C(=O)N(Cc1ccccc1)C(C)(C)C(=O)NC(C)(C)C)C1CCC2(C)CCCC(C)(O)C2C1 (stereo not drawn) [Compound 11]
Selectivity index (SI) on tumor cells (WiDr): 11.5 | GI50 (WiDr): 29 µM | Selectivity index (SI) on tumor cells (SW1573): 10.1 | GI50 (SW1573): 33 µM | Selectivity index (SI) on tumor cells (HeLa): 17.6 | GI50 (HeLa): 19 µM | Selectivity Index on T. cruzi epimastigotes [1]: 12.6 | IC50 ([1]; Trypanosoma cruzi): 26.1 µM | Selectivity index (SI) on tumor cells (HBL-100): 10.1 | GI50 (HBL-100): 33 µM | CC50 [2]: 334 µM | Selectivity index (SI) on tumor cells (T-47D): 14.5 | GI50 (T-47D): 23 µM | GI50 [4]: 17 to 64 µM | Selectivity index (SI) on tumor cells (A549): 16.7 | GI50 (A549): 20 µM

C=C(C(=O)N(c1ccccc1)C(C)(C)C(=O)NCc1ccccc1)[C@@H]1CCC2=CC(=O)C[C@H](C)[C@@]2(C)C1 [Compound 6]
Selectivity index (SI) on tumor cells (WiDr): 2.4 | GI50 (WiDr): 44 µM | Selectivity index (SI) on tumor cells (SW1573): 2.6 | GI50 (SW1573): 40 µM | Selectivity index (SI) on tumor cells (HeLa): 2.9 | GI50 (HeLa): 36 µM | IC50 ([1]; Trypanosoma cruzi): > 100 µM | Selectivity index (SI) on tumor cells (HBL-100): 1.7 | GI50 (HBL-100): 61 µM | CC50 [2]: 104 µM | Selectivity index (SI) on tumor cells (T-47D): 3.5 | GI50 (T-47D): 30 µM | GI50 [4]: 17 to 64 µM | Selectivity index (SI) on tumor cells (A549): 3.1 | GI50 (A549): 33 µM

C=C(C(=O)N(Cc1ccccc1)C(C)(C)C(=O)NC1CCCCC1)C1CCC2(C)CCCC(C)(O)C2C1 (stereo not drawn) [Compound 15]
Selectivity index (SI) on tumor cells (WiDr): 1.7 | GI50 (WiDr): 18 µM | Selectivity index (SI) on tumor cells (SW1573): 1.5 | GI50 (SW1573): 17 µM | GI50 (HeLa): 14 µM | Selectivity Index on T. cruzi epimastigotes [1]: 1.0 | IC50 ([1]; Trypanosoma cruzi): 22.4 µM | Selectivity index (SI) on tumor cells (HBL-100): 1.5 | GI50 (HBL-100): 19 µM | CC50 [2]: 21.5 µM | Selectivity index (SI) on tumor cells (T-47D): 1.7 | GI50 (T-47D): 19 µM | GI50 [4]: 5.3 to 14 µM | GI50 (A549): 13 µM

C=C(C(=O)N(c1ccccc1)C(C)(C)C(=O)NC1CCCCC1)[C@@H]1CCC2=CC(=O)C[C@H](C)[C@@]2(C)C1 [Compound 8]
Selectivity index (SI) on tumor cells (WiDr): 0.7 | GI50 (WiDr): 30 µM | Selectivity index (SI) on tumor cells (SW1573): 0.7 | GI50 (SW1573): 30 µM | Selectivity index (SI) on tumor cells (HeLa): 0.6 | GI50 (HeLa): 31 µM | Selectivity Index on T. cruzi epimastigotes [1]: 0.3 | IC50 ([1]; Trypanosoma cruzi): 63.2 µM | Selectivity index (SI) on tumor cells (HBL-100): 0.5 | GI50 (HBL-100): 37 µM | CC50 [2]: 19.8 µM | Selectivity index (SI) on tumor cells (T-47D): 0.7 | GI50 (T-47D): 27 µM | GI50 [4]: 17 to 64 µM | Selectivity index (SI) on tumor cells (A549): 0.7 | GI50 (A549): 27 µM

C=C(C(=O)N(Cc1ccccc1)C(C)(C)C(=O)NCc1ccccc1)[C@@H]1CCC2=CC(=O)C[C@H](C)[C@@]2(C)C1 [Compound 7]
Selectivity index (SI) on tumor cells (WiDr): 1.0 | GI50 (WiDr): 37 µM | Selectivity index (SI) on tumor cells (SW1573): 1.3 | GI50 (SW1573): 30 µM | Selectivity index (SI) on tumor cells (HeLa): 2.0 | GI50 (HeLa): 19 µM | Selectivity Index on T. cruzi epimastigotes [1]: 8.0 | IC50 ([1]; Trypanosoma cruzi): 9.3 µM | IC50 [1]: 4.7 µM | Selectivity index (SI) on tumor cells (HBL-100): 0.9 | GI50 (HBL-100): 41 µM | CC50 [2]: 38.1 µM | Selectivity index (SI) on tumor cells (T-47D): 1.7 | GI50 (T-47D): 22 µM | GI50 [4]: 17 to 64 µM | Selectivity index (SI) on tumor cells (A549): 1.4 | GI50 (A549): 27 µM

C=C(C(=O)N(c1ccccc1)C(C)(C)C(=O)NC1CCCCC1)C1CCC2(C)CCCC(C)(O)C2C1 (stereo not drawn) [Compound 14]
GI50 (WiDr): 20 µM | GI50 (SW1573): 27 µM | Selectivity index (SI) on tumor cells (HeLa): >24 | GI50 (HeLa): 17 µM | IC50 ([1]; Trypanosoma cruzi): > 101 µM | GI50 (HBL-100): 20 µM | CC50 [2]: > 405 µM | Selectivity index (SI) on tumor cells (T-47D): >17 | GI50 (T-47D): 23 µM | Selectivity index (IS) values, over the tumor cell lines evaluated ([4]; CC50 splenocytes / GI50 tumor cells, across cell lines): greater than 15 | GI50 [4]: 17 to 64 µM | Selectivity index (SI) on tumor cells (A549): >18.4 | GI50 (A549): 22 µM
